Experimental data: publication PMC5770468, “Cardiac glycoside/aglycones inhibit HIV-1 gene expression by a mechanism requiring MEK1/2-ERK1/2 signaling” (Scientific Reports, 2018)

Assays:
ERK1/2 = ERK1/2 activation (phospho/total) by western blot in HeLa rtTA-HIV(Gag-GFP) cells; assay type: cell-based, human; conditions: relative to DMSO (+)
Procedure: Figure 6 CSs control HIV-1 gene expression through intracellular signaling. HeLa rtTA-HIV(Gag-GFP) cells were pre-treated with/without pathway inhibitor overnight (~15 h) and treated with ~IC80s of CSs. […] (a–c) ERK1/2, MK-2, and JNK1/2/3 are activated upon treatment of cells with CSs (n ≥ 4–6, 3–4, and 3–6, resp., mean, s.e.m.). Graphs quantifying the activation level (phospho/total protein) of each MAP/MAPK by western blot. In (a), the results of pre-treating cells with a MEK1/2 inhibitor (12 μM U0126, MEKi) on ERK1/2 activation is also shown and a representative immunoblot is provided in Supplementary Figure S9c. (d) Representative immunoblots of MAP/MAPK activation levels from (a–c). (e–g) MEK1/2 activation may be involved in CS inhibition of HIV-1 gene expression. The signaling pathway(s) used by a CS to inhibit HIV-1 expression was determined by detecting Gag-GFP fluorescence in cell lysates (~35 μg) by reducing SDS-PAGE after pre-treatment of cells with a MEK1/2 (12 μM U0126, white), p38α/β/β2 (15 μM SB203580/p38i, gray), or JNK1/2/3 (1.25 μM SP600125/JNKi, hatched) inhibitor (n ≥ 5–7, 4–8, and 3–7, resp., mean, s.e.m.). Results were shown relative to DMSO (+). […]
Figure 7 Activation of the MEK1/2-ERK1/2 signaling pathway suppresses HIV-1 gene expression. […] RNAs were quantified by qRT-PCR as described in Figures 4a,b. […]

HeLa rtTA-HIV-ΔMls cells = assay type: cell-based, human; conditions: XTT
Procedure: Drug/compounds were tested for effects on HIV-1 gene expression using inducible Tet-ON HIV-1 cell lines [HeLa rtTA-HIV-ΔMls or rtTA-HIV(Gag-GFP)] containing a HIV-1 (LAI) provirus activatable by Dox or tetracycline transactivator (tTA)[69]. The rtTA-HIV-ΔMls provirus was modified and used as previously reported[9]–[11],[70]. The rtTA-HIV(Gag-GFP) provirus was generated by deletion of the PR and RT coding regions within pol and insertion of GFP to the 3′ of gag, creating GFP fused to the C-terminal of Gag. After 4 h of drug/compound treatment, HIV-1 gene expression was activated with Dox (2 μg/mL) or tTA (described below). Equal concentrations of DMSO were present in each experiment. After ~20 h, cells and media were harvested to monitor the effects of drug/compound treatments as described below. HIV-1 gene expression was quantified via p24^CA ELISA or monitoring Gag-GFP fluorescence in cells as described below. In parallel, cell viability of treatments were assessed by XTT assay (Sigma-Aldrich, #TOX2). For confirmatory tests, the CD4^+ HIV-1 T-cell line, 24ST1NLESG, from J. Dougherty, was treated with drug/compounds and HIV-1 gene expression activated by 1.8 µM of phorbol 12-myristate 13-acetate (PMA) as previously described[10],[11],[71].
Supplementary Figure S2. CSs inhibit HIV-1 gene expression in a dose-dependent manner. […]

## COc1ccc(C[C@H]2NC[C@H](O)[C@H]2OC(C)=O)cc1 [anisomycin, Anisomycin]
ERK1/2
  ERK1/2 activation: activated

## C[C@]12CC[C@H](O)C[C@H]1CC[C@@H]1[C@@H]2CC[C@]2(C)[C@@H](C3=CC(=O)OC3)CC[C@]12O [Digitoxigenin]
HeLa rtTA-HIV-ΔMls cells; at 1000 nM
  toxicity: no toxicity

## C[C@]12CC[C@H](O)C[C@H]1CC[C@@H]1[C@@H]2C[C@@H](O)[C@]2(C)[C@@H](C3=CC(=O)OC3)CC[C@]12O [Digoxigenin]
HeLa rtTA-HIV-ΔMls cells
  CC20 (cytotoxic effects ≥20%): 0.6 µM
